Measurements taken from ChEMBL document CHEMBL5344452, “TYK2 Inhibitors for Treating Autoimmune and Inflammatory Diseases” (ACS Med Chem Lett, 2024).

Biological target: Non-receptor tyrosine-protein kinase TYK2 (Homo sapiens, UniProt P29597)
Assay: Inhibition of human TYK2 JH2 domain (575 to 876 residues) incubated for 60 mins by TR-FRET assay

Non-receptor tyrosine-protein kinase TYK2, sequence (P29597 whole entry, the tested form may be a part): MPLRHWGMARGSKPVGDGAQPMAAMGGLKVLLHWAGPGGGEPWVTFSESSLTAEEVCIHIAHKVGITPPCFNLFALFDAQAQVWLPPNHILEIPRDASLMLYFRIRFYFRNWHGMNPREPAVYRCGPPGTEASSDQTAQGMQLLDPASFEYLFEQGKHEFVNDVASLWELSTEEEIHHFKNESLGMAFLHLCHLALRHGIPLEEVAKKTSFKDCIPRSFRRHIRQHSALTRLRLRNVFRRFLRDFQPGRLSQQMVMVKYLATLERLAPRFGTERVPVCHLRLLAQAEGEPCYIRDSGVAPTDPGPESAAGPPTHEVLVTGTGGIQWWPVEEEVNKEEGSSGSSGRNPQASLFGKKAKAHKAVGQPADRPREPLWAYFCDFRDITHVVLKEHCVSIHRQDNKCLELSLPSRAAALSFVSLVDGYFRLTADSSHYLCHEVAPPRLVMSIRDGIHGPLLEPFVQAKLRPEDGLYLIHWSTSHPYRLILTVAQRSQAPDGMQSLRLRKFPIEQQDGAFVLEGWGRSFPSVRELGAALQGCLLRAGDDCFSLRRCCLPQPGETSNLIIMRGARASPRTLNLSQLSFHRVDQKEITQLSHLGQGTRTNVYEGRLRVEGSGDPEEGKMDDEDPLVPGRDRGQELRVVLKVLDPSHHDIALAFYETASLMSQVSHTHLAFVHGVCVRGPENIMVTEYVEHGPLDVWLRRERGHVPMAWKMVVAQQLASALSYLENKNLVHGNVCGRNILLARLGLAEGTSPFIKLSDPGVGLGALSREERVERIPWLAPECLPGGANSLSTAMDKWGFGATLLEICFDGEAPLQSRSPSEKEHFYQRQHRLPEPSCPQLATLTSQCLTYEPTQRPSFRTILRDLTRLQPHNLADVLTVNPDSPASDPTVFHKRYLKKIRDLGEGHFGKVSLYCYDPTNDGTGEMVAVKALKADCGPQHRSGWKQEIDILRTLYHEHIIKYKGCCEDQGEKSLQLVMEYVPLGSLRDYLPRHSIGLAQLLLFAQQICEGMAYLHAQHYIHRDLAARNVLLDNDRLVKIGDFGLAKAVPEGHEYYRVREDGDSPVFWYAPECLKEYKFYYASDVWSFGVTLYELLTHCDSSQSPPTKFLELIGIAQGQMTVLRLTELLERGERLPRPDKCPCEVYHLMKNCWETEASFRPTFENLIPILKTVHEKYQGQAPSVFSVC

Row | IC50 [nM] | Structure (SMILES)
1 | ≤ 10 | CC(=O)Nc1cc2c(cn1)c(-c1ccn(C)n1)nn2-c1ccnc(C(C)(F)F)n1
2 | ≤ 10 | CC(=O)Nc1cc2c(cn1)c(N1CC3(COC3)C1)nn2-c1nccc(C(C)(F)F)n1
3 | ≤ 10 | CC(=O)Nc1cc2c(cn1)c(C)nn2-c1nc(C2CCOC2)c(C)s1 (stereo unspecified)
4 | ≤ 10 | CC(=O)Nc1cc2c(cn1)c(-c1ccc(C)nc1)nn2-c1ccnc(C(C)(F)F)n1
5 | ≤ 10 | COC1CC(Oc2cc(C3CCOC3)nc(-n3nc(C4CC4)c4cnc(NC(C)=O)cc43)c2)C1 (stereo unspecified)
6 | ≤ 10 | CC(=O)Nc1cc2c(cn1)c(C)nn2-c1cccc(C2CCOC2)n1 (stereo unspecified)
